Assay results: the kinase profiling compilation of Christmann-Franck et al. (2016)

Columns and labels:
Assay in all cases: radiometric filter-binding kinase assay, Kinase HotSpot
Details in all cases: compound 0.5 µM; ATP 10 µM
AKT3 (human) = AKT3 (human) (UniProt Q9Y243)
AURKC (human) = AURKC (human) (UniProt Q9UQB9)
AXL (human) = AXL (human) (UniProt P30530)
BRSK2 (human) = BRSK2 (human) (UniProt Q8IWQ3)
CAMK1 (human) = CAMK1 (human) (UniProt Q14012)
CAMK1G (human) = CAMK1G (human) (UniProt Q96NX5)
CAMK2B (human) = CAMK2B (human) (UniProt Q13554)
CAMK2D (human) = CAMK2D (human) (UniProt Q13557)
CDK1 CCNB1 (human) = CDK1 CCNB1 (human) (UniProt P06493+P14635)
CDK5 CDK5R1 p35 (human) = CDK5 CDK5R1 p35 (human) (UniProt Q00535+Q15078)
CDK6 CCND1 (human) = CDK6 CCND1 (human) (UniProt Q00534+P24385)
CDK9 CCNK (human) = CDK9 CCNK (human) (UniProt O75909+P50750)
Sequence of CDK9 CCNK (human) (O75909 whole entry, looked up): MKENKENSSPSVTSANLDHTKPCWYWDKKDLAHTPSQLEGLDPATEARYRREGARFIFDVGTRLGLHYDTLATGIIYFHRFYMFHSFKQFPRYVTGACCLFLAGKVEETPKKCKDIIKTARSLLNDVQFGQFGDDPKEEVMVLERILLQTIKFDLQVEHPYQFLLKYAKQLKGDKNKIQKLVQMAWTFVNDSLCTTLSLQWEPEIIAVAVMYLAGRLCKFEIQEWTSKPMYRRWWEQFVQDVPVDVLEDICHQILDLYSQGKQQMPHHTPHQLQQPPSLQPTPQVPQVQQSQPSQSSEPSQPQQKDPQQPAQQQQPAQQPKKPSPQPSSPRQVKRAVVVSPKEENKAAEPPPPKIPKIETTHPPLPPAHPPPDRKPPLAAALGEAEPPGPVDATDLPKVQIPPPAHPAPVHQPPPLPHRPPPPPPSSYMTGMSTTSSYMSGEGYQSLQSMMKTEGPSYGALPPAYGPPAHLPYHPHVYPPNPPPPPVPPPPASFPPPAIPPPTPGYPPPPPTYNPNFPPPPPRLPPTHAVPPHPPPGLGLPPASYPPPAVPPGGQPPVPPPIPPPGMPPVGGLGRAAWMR
Sequence of CDK9 CCNK (human) (P50750 whole entry, looked up): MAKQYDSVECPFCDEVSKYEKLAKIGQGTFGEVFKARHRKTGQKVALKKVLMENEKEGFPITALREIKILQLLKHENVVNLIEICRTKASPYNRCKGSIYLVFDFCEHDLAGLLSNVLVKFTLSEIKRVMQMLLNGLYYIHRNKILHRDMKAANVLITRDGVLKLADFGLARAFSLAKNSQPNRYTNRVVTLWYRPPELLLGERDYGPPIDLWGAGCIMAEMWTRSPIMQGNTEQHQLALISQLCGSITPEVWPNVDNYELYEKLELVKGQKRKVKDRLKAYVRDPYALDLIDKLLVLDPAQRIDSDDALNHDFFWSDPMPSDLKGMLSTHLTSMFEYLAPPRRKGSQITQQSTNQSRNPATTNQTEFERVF

CSK (human) = CSK (human) (UniProt P41240)
CSNK2A2 (human) = CSNK2A2 (human) (UniProt P19784)
DAPK1 (human) = DAPK1 (human) (UniProt P53355)
DYRK2 (human) = DYRK2 (human) (UniProt Q92630)
EPHA4 (human) = EPHA4 (human) (UniProt P54764)
Sequence of EPHA4 (human) (P54764 whole entry, looked up): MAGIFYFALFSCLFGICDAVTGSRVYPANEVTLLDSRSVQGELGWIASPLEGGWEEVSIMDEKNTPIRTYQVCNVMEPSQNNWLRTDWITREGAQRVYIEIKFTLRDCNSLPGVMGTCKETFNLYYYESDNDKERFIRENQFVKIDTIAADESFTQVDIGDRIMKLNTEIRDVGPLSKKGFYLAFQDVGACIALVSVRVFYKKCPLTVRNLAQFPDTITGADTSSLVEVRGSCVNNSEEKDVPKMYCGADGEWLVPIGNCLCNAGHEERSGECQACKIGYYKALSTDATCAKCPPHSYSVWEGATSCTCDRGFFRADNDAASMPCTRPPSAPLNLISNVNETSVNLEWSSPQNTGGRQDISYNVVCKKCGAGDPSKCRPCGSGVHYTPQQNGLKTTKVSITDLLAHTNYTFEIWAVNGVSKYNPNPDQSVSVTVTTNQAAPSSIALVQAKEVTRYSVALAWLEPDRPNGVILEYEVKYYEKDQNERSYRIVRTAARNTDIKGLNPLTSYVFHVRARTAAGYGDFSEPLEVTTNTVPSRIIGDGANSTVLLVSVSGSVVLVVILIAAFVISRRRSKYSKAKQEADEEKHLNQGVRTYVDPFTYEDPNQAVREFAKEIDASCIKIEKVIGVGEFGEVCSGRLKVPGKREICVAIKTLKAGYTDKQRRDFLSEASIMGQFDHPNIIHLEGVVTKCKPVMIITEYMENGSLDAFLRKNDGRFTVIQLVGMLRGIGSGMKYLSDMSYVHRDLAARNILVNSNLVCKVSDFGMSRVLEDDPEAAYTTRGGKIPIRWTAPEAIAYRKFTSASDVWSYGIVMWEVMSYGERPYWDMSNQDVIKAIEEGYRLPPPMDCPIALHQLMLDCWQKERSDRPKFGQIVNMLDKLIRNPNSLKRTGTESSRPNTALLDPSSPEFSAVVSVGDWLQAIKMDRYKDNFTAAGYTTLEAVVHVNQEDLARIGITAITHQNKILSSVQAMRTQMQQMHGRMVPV

FES (human) = FES (human) (UniProt P07332)
Sequence of FES (human) (P07332 whole entry, looked up): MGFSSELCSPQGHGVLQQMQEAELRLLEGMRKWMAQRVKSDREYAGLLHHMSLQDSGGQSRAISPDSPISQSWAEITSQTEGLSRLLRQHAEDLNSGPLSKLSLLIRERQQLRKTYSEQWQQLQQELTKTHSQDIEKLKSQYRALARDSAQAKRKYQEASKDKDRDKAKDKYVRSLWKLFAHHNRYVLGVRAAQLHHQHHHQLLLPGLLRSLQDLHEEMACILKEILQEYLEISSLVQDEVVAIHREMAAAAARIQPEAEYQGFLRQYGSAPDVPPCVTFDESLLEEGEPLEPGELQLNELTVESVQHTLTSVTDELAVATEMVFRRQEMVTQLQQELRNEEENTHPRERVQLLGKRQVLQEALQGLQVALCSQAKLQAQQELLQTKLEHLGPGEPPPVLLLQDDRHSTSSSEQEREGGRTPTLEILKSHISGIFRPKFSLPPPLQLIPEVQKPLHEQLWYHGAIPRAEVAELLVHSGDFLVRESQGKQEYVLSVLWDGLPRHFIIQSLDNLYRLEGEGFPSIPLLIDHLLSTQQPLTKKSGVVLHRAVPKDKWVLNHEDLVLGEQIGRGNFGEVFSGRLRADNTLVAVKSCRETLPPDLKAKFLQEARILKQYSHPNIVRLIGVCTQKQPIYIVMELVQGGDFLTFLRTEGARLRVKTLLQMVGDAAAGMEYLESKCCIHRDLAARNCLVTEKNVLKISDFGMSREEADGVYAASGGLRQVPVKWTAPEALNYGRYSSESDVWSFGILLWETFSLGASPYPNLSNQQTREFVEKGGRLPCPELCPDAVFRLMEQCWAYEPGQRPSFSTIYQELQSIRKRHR

IRAK4 (human) = IRAK4 (human) (UniProt Q9NWZ3)
LTK (human) = LTK (human) (UniProt P29376)
MAP3K5 (human) = MAP3K5 (human) (UniProt Q99683)
MAP3K7 TAB1 (human) = MAP3K7 TAB1 (human) (UniProt O43318+Q15750)
MAP3K9 (human) = MAP3K9 (human) (UniProt P80192)
MAP4K4 (human) = MAP4K4 (human) (UniProt O95819)
MAPK1 (human) = MAPK1 (human) (UniProt P28482)
MAPK3 (human) = MAPK3 (human) (UniProt P27361)
PHKG1 (human) = PHKG1 (human) (UniProt Q16816)
Sequence of PHKG1 (human) (Q16816 whole entry, looked up): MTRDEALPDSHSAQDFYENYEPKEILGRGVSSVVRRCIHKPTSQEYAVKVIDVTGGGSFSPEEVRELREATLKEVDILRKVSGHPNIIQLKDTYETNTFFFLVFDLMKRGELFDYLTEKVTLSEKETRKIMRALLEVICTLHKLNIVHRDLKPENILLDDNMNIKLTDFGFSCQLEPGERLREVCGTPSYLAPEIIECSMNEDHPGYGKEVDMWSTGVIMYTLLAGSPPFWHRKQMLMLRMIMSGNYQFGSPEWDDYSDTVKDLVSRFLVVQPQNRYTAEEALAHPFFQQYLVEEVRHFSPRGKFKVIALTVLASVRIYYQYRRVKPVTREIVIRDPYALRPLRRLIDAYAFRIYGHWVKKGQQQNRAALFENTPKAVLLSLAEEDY

PIM2 (human) = PIM2 (human) (UniProt Q9P1W9)
PKN1 (human) = PKN1 (human) (UniProt Q16512)
PRKCZ (human) = PRKCZ (human) (UniProt Q05513)
Sequence of PRKCZ (human) (Q05513 whole entry, looked up): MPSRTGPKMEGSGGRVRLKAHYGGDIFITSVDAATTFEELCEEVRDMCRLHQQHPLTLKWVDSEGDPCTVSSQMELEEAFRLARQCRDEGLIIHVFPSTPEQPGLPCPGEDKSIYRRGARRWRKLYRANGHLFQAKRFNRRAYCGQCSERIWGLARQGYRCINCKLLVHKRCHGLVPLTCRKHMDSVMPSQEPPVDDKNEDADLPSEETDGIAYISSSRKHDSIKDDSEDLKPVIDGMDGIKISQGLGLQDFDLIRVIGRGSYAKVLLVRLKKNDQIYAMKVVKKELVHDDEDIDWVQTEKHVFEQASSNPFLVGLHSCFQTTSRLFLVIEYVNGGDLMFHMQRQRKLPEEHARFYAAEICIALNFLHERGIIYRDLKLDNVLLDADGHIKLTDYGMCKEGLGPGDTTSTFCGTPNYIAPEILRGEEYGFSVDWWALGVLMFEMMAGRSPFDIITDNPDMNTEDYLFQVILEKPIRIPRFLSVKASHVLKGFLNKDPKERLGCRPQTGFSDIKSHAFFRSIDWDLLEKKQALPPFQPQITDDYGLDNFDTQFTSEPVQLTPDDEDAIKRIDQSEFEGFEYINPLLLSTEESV

PTK2 (human) = PTK2 (human) (UniProt Q05397)
RAF1 (human) = RAF1 (human) (UniProt P04049)
RIPK2 (human) = RIPK2 (human) (UniProt O43353)
RPS6KA2 KD1 KD2 (human) = RPS6KA2 KD1 KD2 (human) (UniProt Q15349)
RPS6KB1 (human) = RPS6KB1 (human) (UniProt P23443)
STK17A (human) = STK17A (human) (UniProt Q9UEE5)
STK33 (human) = STK33 (human) (UniProt Q9BYT3)
STK4 (human) = STK4 (human) (UniProt Q13043)
TEK (human) = TEK (human) (UniProt Q02763)
TGFBR1 (human) = TGFBR1 (human) (UniProt P36897)
TXK (human) = TXK (human) (UniProt P42681)

Sequence of AURKC (human) (Q9UQB9 whole entry, looked up): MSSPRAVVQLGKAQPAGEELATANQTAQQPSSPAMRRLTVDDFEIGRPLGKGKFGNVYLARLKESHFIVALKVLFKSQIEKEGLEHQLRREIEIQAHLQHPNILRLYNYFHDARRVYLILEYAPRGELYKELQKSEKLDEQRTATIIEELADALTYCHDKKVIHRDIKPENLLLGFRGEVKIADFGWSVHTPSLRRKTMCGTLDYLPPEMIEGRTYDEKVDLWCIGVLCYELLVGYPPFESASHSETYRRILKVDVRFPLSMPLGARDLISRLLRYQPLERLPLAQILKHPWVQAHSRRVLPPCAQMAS
Sequence of BRSK2 (human) (Q8IWQ3 whole entry, looked up): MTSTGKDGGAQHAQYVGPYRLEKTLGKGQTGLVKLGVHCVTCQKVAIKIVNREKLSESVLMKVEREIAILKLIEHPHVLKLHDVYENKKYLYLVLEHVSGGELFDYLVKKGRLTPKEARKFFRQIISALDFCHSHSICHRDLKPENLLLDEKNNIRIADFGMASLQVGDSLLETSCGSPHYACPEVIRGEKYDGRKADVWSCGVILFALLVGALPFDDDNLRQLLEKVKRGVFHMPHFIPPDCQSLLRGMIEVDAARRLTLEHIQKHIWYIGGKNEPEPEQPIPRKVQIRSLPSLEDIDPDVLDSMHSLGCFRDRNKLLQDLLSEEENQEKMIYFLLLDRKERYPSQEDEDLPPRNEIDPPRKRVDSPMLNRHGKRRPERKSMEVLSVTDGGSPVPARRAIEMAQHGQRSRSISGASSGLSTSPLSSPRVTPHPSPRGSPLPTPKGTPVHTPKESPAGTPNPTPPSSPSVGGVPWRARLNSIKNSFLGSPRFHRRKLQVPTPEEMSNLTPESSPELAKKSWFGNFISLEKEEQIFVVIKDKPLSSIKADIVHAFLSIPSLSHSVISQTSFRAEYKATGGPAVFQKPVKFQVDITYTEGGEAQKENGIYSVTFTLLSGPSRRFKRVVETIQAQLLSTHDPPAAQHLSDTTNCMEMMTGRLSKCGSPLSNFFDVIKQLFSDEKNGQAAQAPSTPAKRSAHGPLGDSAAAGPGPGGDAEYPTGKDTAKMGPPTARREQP

O=c1c2ccccc2[nH]c(=S)n1CCN1CCC(=C(c2ccc(F)cc2)c2ccc(F)cc2)CC1
residual activity (AKT3 (human)): 99.4%
residual activity (AURKC (human)): 99.4%
residual activity (AXL (human)): 91.7%
residual activity (BRSK2 (human)): 99.8%
residual activity (CAMK1 (human)): 98.6%
residual activity (CAMK1G (human)): 104%
residual activity (CAMK2B (human)): 102%
residual activity (CAMK2D (human)): 97.9%
residual activity (CDK1 CCNB1 (human)): 83%
residual activity (CDK5 CDK5R1 p35 (human)): 101%
residual activity (CDK6 CCND1 (human)): 98.7%
residual activity (CDK9 CCNK (human)): 104%
residual activity (CSK (human)): 119%
residual activity (CSNK2A2 (human)): 97.7%
residual activity (DAPK1 (human)): 93.8%
residual activity (DYRK2 (human)): 95.4%
residual activity (EPHA4 (human)): 99.4%
residual activity (FES (human)): 94.9%
residual activity (IRAK4 (human)): 105%
residual activity (LTK (human)): 97.9%
residual activity (MAP3K5 (human)): 98.1%
residual activity (MAP3K7 TAB1 (human)): 103%
residual activity (MAP3K9 (human)): 111%
residual activity (MAP4K4 (human)): 99.8%
residual activity (MAPK1 (human)): 102%
residual activity (MAPK3 (human)): 105%
residual activity (PHKG1 (human)): 101%
residual activity (PIM2 (human)): 129%
residual activity (PKN1 (human)): 103%
residual activity (PRKCZ (human)): 102%
residual activity (PTK2 (human)): 105%
residual activity (RAF1 (human)): 96.7%
residual activity (RIPK2 (human)): 93.1%
residual activity (RPS6KA2 KD1 KD2 (human)): 107%
residual activity (RPS6KB1 (human)): 97.9%
residual activity (STK17A (human)): 103%
residual activity (STK33 (human)): 106%
residual activity (STK4 (human)): 103%
residual activity (TEK (human)): 96.1%
residual activity (TGFBR1 (human)): 96.2%
residual activity (TXK (human)): 100%

O=C(O)c1ccc2c3c1cccc3c(=O)n1c3ccccc3nc21
residual activity (AKT3 (human)): 104%
residual activity (AURKC (human)): 88%
residual activity (AXL (human)): 94.3%
residual activity (BRSK2 (human)): 90.4%
residual activity (CAMK1 (human)): 101%
residual activity (CAMK1G (human)): 99%
residual activity (CAMK2B (human)): 92.6%
residual activity (CAMK2D (human)): 93.6%
residual activity (CDK1 CCNB1 (human)): 65%
residual activity (CDK5 CDK5R1 p35 (human)): 88%
residual activity (CDK6 CCND1 (human)): 90.6%
residual activity (CDK9 CCNK (human)): 76.4%
residual activity (CSK (human)): 101%
residual activity (CSNK2A2 (human)): 13.3%
residual activity (DAPK1 (human)): 40.9%
residual activity (DYRK2 (human)): 50.7%
residual activity (EPHA4 (human)): 103%
residual activity (FES (human)): 98.2%
residual activity (IRAK4 (human)): 107%
residual activity (LTK (human)): 72.7%
residual activity (MAP3K5 (human)): 102%
residual activity (MAP3K7 TAB1 (human)): 74.4%
residual activity (MAP3K9 (human)): 64.4%
residual activity (MAP4K4 (human)): 43.4%
residual activity (MAPK1 (human)): 100%
residual activity (MAPK3 (human)): 102%
residual activity (PHKG1 (human)): 91.5%
residual activity (PIM2 (human)): 41.7%
residual activity (PKN1 (human)): 99.5%
residual activity (PRKCZ (human)): 94.3%
residual activity (PTK2 (human)): 97.5%
residual activity (RAF1 (human)): 97.5%
residual activity (RIPK2 (human)): 78.4%
residual activity (RPS6KA2 KD1 KD2 (human)): 90.5%
residual activity (RPS6KB1 (human)): 95.9%
residual activity (STK17A (human)): 73.4%
residual activity (STK33 (human)): 78.8%
residual activity (STK4 (human)): 93.3%
residual activity (TEK (human)): 102%
residual activity (TGFBR1 (human)): 99.4%
residual activity (TXK (human)): 102%

N#CCCc1ccc2c(c1)-c1[nH]c3ccc([N+](=O)[O-])cc3c1CC(=O)N2
residual activity (AKT3 (human)): 95.5%
residual activity (AURKC (human)): 83.6%
residual activity (AXL (human)): 95.5%
residual activity (BRSK2 (human)): 42%
residual activity (CAMK1 (human)): 96%
residual activity (CAMK1G (human)): 103%
residual activity (CAMK2B (human)): 99.3%
residual activity (CAMK2D (human)): 57.8%
residual activity (CDK1 CCNB1 (human)): 9.89%
residual activity (CDK5 CDK5R1 p35 (human)): 2.6%
residual activity (CDK6 CCND1 (human)): 6.79%
residual activity (CDK9 CCNK (human)): 23.7%
residual activity (CSK (human)): 96.3%
residual activity (CSNK2A2 (human)): 92.9%
residual activity (DAPK1 (human)): 96.5%
residual activity (DYRK2 (human)): 46.8%
residual activity (EPHA4 (human)): 85.2%
residual activity (FES (human)): 37.9%
residual activity (IRAK4 (human)): 155%
residual activity (LTK (human)): 80%
residual activity (MAP3K5 (human)): 101%
residual activity (MAP3K7 TAB1 (human)): 38.1%
residual activity (MAP3K9 (human)): 18.2%
residual activity (MAP4K4 (human)): 6.82%
residual activity (MAPK1 (human)): 119%
residual activity (MAPK3 (human)): 95.1%
residual activity (PHKG1 (human)): 7.72%
residual activity (PIM2 (human)): 104%
residual activity (PKN1 (human)): 78%
residual activity (PRKCZ (human)): 83.4%
residual activity (PTK2 (human)): 82.2%
residual activity (RAF1 (human)): 104%
residual activity (RIPK2 (human)): 21.5%
residual activity (RPS6KA2 KD1 KD2 (human)): 24.4%
residual activity (RPS6KB1 (human)): 98%
residual activity (STK17A (human)): 46.8%
residual activity (STK33 (human)): 78.8%
residual activity (STK4 (human)): 30.9%
residual activity (TEK (human)): 97.6%
residual activity (TGFBR1 (human)): 103%
residual activity (TXK (human)): 67.6%
